Source: patent publication EP1667954B1, “BIPOLAR TRANS CAROTENOID SALTS AND THEIR USES” (Diffusion Pharmaceuticals LLC, priority 2003, dated 2005)

Experiments:
[1] = Aqueous solubility and solution stability of TSC / BTCS
Description: (§1) A dilute, eg .00001-.001M, solution of sodium carbonate can be added, dropwise, to deionized water until the pH is 8.0 (the pH of deionized water is usually 5-6). This only takes a few drops of the very dilute sodium carbonate per, say, 50 mls of deionized water.

[2] = system: hemorrhaged rats (55% blood volume); conditions: cited from earlier work
[3] = TSC by inhalation: drug in the blood stream after nebulizing into the trachea; type: in vivo; conditions: rats
Procedure: TSC has been given to rats via an inhalation route. Ten rats were given TSC directly into the lungs. This was done by inserting a tube into the trachea, and nebulizing 0.2 ml of TSC solution (TSC dissolved in dilute sodium carbonate solution) with about 3 to 6 mls of air. For all dosages studied (0.5-2 mg/kg), about 20% of the drug was present in the blood stream within one minute after it was given. For dosages of .8 -1.6 mg/kg the drug was present in the blood stream for a period of at least two hours.

[4] = Diffusivity of oxygen through aqueous solutions
Description: TSC increases survival in mammals following hypoxia, increases oxygen consumption following hypoxia or physiological stress, increases blood pressure following hypoxia, decreases blood acidosis (i.e., decreases blood base deficit, increases blood pH, and decreases plasma lactate level) following hypoxia, decreases organ damage (e.g. liver, kidney) following hypoxia. Thus, the compounds of the disclosure are useful for treating mammal (including human) diseases/conditions which are characterized by low oxygen (hypoxia) such as respiratory diseases, hemorrhagic shock and cardiovascular diseases, multiple organ failure (due to, for example, ARDS sepsis or hemorrhagic shock), chronic renal failure, atherosclerosis, emphysema, asthma, hypertension, cerebral edema, papillomas, spinal cord injuries, stroke, among others. The compounds of the disclosure are also useful for treating mammals at risk for the above-noted diseases/conditions. Other bipolar trans carotenoid salts have similar properties.

physchem = conditions: water
Description: as §1

[5] = system: rat model of acute hypoxia; conditions: hypoxia with 10% oxygen, treatment after 10 minutes; only 2 of 6 control animals survived; cited from earlier work
[6] = Dissolution in normal saline and other salt solutions; type: physicochemical; conditions: no matter how much TSC is added (up to several milligrams per ml)
Procedure: Large volumes (as much as 3 times the estimated blood loss) of isotonic saline (also called normal saline) are infused as a treatment for hemorrhagic shock. The isotonic saline contains 9 g NaCl per liter of water so as not to disturb the ionic strength of the plasma once it is infused into the body. […] About 50% of the TSC dissolves in normal saline no matter how much TSC is added (up to several milligrams per ml), which means that undissolved particles of TSC are still present. […] The actual composition of the stock solution can be verified using UV-visible spectroscopy. This stock solution can be added to normal saline and the TSC remains dissolved.
This method can be used to dissolve a BTCS in other types of sodium chloride solutions, as well as in solutions of other salts such as KCl, Na2SO4, lactate, etc. Several, eg 1-3 mg/ml, can be put into solution in this manner.

[7] = result in words; cited from earlier work

| SMILES | amount completely dissolved in sodium carbonate-deionized water solution ([1]; deionized water brought to pH 8.0 with dilute sodium carbonate) | stability of solutions in water ([1]; tap, distilled, deionized water) | survival ([2]; hemorrhaged rats (55% blood volume), bolus after hemorrhage, saline after another 30 minutes, all controls died) | Whole-body oxygen consumption ([2]; hemorrhaged rats, after about 15 minutes) | drug present in the blood stream ([3]; inhalation (intratracheal nebulizing), all dosages 0.5-2 mg/kg, within one minute) | period the drug was present in the blood stream ([3]; inhalation, dosages of .8 -1.6 mg/kg) | increase of diffusivity of oxygen through aqueous solutions [4] | solubility (physchem) | solubility (physchem; pH 8) | survival and hemodynamic stability [5] | amount of TSC that dissolves in normal saline [6] | solubility in water [7] |
| --- | --- | --- | --- | --- | --- | --- | --- | --- | --- | --- | --- | --- |
| CC(/C=C/C=C(\C)C(=O)O)=C\C=C\C=C(C)\C=C\C=C(/C)C(=O)O [TSC, Trans sodium crocetinate] | around 10 mg/ml | only stable if the pH is adjusted so as to make the solution basic | All of the TSC-treated animals lived | 75 % of normal resting value | about 20% | at least two | about 30% | ~10000 µg/mL | > 10000 µg/mL | all survived with good hemodynamic stability for over two hours | About 50% | – |
| CC(/C=C/C=C(\C)C(=O)O)=C\C=C\C=C(C)\C=C\C=C(/C)C(=O)O [crocetin] | – | – | – | – | – | – | – | – | – | – | – | only sparingly soluble |
| CC(/C=C/C=C(\C)C(=O)O[C@@H]1O[C@H](CO[C@@H]2O[C@H](CO)[C@@H](O)[C@H](O)[C@H]2O)[C@@H](O)[C@H](O)[C@H]1O)=C\C=C\C=C(C)\C=C\C=C(/C)C(=O)O[C@@H]1O[C@H](CO[C@@H]2O[C@H](CO)[C@@H](O)[C@H](O)[C@H]2O)[C@@H](O)[C@H](O)[C@H]1O [crocin] | – | – | – | – | – | – | – | – | – | – | – | significant solubility |
